Data set [1] deals with T1, full-length beta-Catenin (Uniprot ID P35222) (Homo sapiens, UniProt P35222).
T1 construct: 10 nM full-length beta-Catenin (Uniprot ID P35222)
T1 sequence (P35222 1-781): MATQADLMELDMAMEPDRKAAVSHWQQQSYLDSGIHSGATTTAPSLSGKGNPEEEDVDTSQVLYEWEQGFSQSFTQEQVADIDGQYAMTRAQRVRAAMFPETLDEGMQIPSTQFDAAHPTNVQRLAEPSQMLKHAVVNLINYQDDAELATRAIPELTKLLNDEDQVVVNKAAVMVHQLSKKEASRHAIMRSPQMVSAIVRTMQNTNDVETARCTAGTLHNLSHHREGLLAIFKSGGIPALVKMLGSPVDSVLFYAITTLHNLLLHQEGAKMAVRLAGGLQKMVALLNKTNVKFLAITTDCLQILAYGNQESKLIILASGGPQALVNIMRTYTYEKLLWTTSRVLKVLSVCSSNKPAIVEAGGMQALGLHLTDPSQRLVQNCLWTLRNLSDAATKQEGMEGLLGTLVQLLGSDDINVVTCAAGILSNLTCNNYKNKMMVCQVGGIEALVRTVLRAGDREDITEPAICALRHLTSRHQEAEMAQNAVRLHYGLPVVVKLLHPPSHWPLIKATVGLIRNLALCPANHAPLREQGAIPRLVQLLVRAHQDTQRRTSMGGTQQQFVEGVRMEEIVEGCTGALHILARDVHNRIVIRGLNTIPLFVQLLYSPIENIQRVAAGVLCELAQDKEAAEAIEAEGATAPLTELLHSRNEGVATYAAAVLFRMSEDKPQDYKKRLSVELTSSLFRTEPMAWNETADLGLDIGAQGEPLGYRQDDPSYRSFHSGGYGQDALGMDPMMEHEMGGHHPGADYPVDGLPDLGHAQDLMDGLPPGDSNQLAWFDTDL
The data set can be described thus: Fluorescence polarization IC50 (beta-catenin / 5FAM-TCF4 10-53 competition). The format is binding.

A further data set in a line: Solubility in PBS. The format is physicochemical. In outline: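 HPLC quantitation of peptide remaining in the PBS supernatant after ultracentrifugation, referenced to a 50 μM solution in DMSO.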
The mark [2] stands for this setting: fluorescence polarization, read-out: beta-Catenin FP IC50.
Where [3] appears, read: fluorescence polarization, beta-catenin, read-out: FP EC50.

Values after ≈ are worked out from the molar mass of the structure shown. Where two headings read alike, the source gives them in different places.

`CC(=O)N1CCC[C@]12CC=CCCCC1(CCCC=CCCCOC(=O)N3CC[C@@](C(=O)N[C@@H](Cc4ccccc4Cl)C(=O)N[C@@H](Cc4csc5ccccc45)C(=O)N[C@H](C(N)=O)[C@@H](C)O)(C3)NC(=O)[C@H](CO)NC(=O)[C@H](Cc3ccccc3)NC(=O)[C@H](C)NC(=O)[C@H](C)NC(=O)[C@H](CC(=O)O)NC(=O)[C@H](CC(=O)O)NC1=O)NC(=O)[C@H](CC1CCCCC1)NC(=O)[C@H](CC(=O)O)NC2=O` (stereo partly drawn) [I-1135, Ac-PL3-Asp-Cha-B5-Asp-Asp-Ala-Ala-Phe-Ser-PyrS2-2C1F-BztA-Thr-NH2]: the IC50 in data set [1] (setting [2]) came to 0.02 µM. Moreover, in “Solubility in PBS” (Solubility (uM)), the concentration in solution (Solubility) was 39 µM (≈ 74.8 µg/mL).
In the same order, the values of `CC(=O)N1CCC[C@]12CC=CCCCC1(CCCC=CCCCOC(=O)N3CC[C@@](C(=O)N[C@@H](Cc4ccccc4Cl)C(=O)N[C@@H](Cc4csc5ccccc45)C(=O)N[C@@H](CC(C)C)C(N)=O)(C3)NC(=O)[C@H](CO)NC(=O)[C@H](Cc3ccccc3)NC(=O)[C@H](C)NC(=O)[C@H](C)NC(=O)[C@H](CC(=O)O)NC(=O)[C@H](CC(=O)O)NC1=O)NC(=O)[C@H](Cc1ccccc1)NC(=O)[C@H](CC(=O)O)NC2=O` (stereo partly drawn) [I-1144, Ac-PL3-Asp-Phe-B5-Asp-Asp-Ala-Ala-Phe-Ser-PyrS2-2C1F-BztA-Leu-NH2] are 0.028 µM and 32 µM (≈ 61.6 µg/mL).
For `CC(=O)N1CCC[C@]12CC=CCCCC1(CCCC=CCCCOC(=O)N3CC[C@@](C(=O)N[C@@H](Cc4ccccc4Cl)C(=O)N[C@@H](Cc4csc5ccccc45)C(=O)N[C@@H](CCC(N)=O)C(N)=O)(C3)NC(=O)[C@H](CO)NC(=O)[C@H](Cc3ccccc3)NC(=O)[C@H](CC(C)C)NC(=O)[C@H](CC(C)C)NC(=O)[C@H](CC(=O)O)NC(=O)[C@H](CC(=O)O)NC1=O)NC(=O)[C@H](CC1CCCCC1)NC(=O)[C@H](CC(=O)O)NC2=O` (stereo partly drawn) [I-1149, Ac-PL3-Asp-Cha-B5-Asp-Asp-Leu-Leu-Phe-Ser-PyrS2-2C1F-BztA-Gln-NH2], the IC50 in data set [1] (setting [2]) was determined as 0.07 µM. For the same compound, the “Solubility” value in the data set “Solubility in PBS” was found to be 10 µM (≈ 20.3 µg/mL).
Take `CC(=O)N1CCC[C@]12CC=CCCCC1(CCCC=CCCCOC(=O)N3CC[C@@](C(=O)N[C@@H](Cc4ccccc4Cl)C(=O)N[C@@H](Cc4csc5ccccc45)C(=O)N[C@@H](CO)C(N)=O)(C3)NC(=O)[C@H]([C@@H](C)O)NC(=O)[C@H](Cc3ccccc3)NC(=O)[C@H](C)NC(=O)[C@H](CC(C)C)NC(=O)[C@H](CC(=O)O)NC(=O)[C@H](CC(=O)O)NC1=O)NC(=O)[C@H](Cc1ccccc1)NC(=O)[C@H](CC(=O)O)NC2=O` (stereo partly drawn) [I-1156, Ac-PL3-Asp-Phe-B5-Asp-Asp-Leu-Ala-Phe-Thr-PyrS2-2C1F-BztA-Ser-NH2]: the IC50 in data set [1] (setting [2]) was determined as 0.014 µM. This compound also returned a Solubility in “Solubility in PBS” (Solubility (uM)) of 48 µM (≈ 93.8 µg/mL).
In the case of `CC(=O)N1CCC[C@]12CC=CCCCC1(CCCC=CCCCOC(=O)N3CC[C@@](C(=O)N[C@@H](Cc4ccccc4Cl)C(=O)N[C@@H](Cc4csc5ccccc45)C(=O)N[C@@H](CO)C(N)=O)(C3)NC(=O)[C@H]([C@@H](C)O)NC(=O)[C@H](Cc3ccccc3)NC(=O)[C@H](CC(C)C)NC(=O)[C@H](CC(C)C)NC(=O)[C@H](CC(=O)O)NC(=O)[C@H](CC(=O)O)NC1=O)NC(=O)[C@H](Cc1ccccc1)NC(=O)[C@H](CC(=O)O)NC2=O` (stereo partly drawn) [I-1158, Ac-PL3-Asp-Phe-B5-Asp-Asp-Leu-Leu-Phe-Thr-PyrS2-2C1F-BztA-Ser-NH2], in data set [1] (beta-Catenin FP IC50, fluorescence polarization), the IC50 stood at 0.168 µM. The Solubility in the data set “Solubility in PBS” was 29 µM (≈ 57.9 µg/mL).
For `CC(=O)N1CCC[C@]12CC=CCCCC1(CCCC=CCCCOC(=O)N3CC[C@@](C(=O)N[C@@H](Cc4ccccc4Cl)C(=O)N[C@@H](Cc4csc5ccccc45)C(=O)N[C@@H](CCC(N)=O)C(N)=O)(C3)NC(=O)[C@H](CC(C)C)NC(=O)[C@H](Cc3ccccc3)NC(=O)[C@H](C)NC(=O)[C@H](C)NC(=O)[C@H]([C@@H](C)O)NC(=O)[C@H](CC(=O)O)NC1=O)NC(=O)[C@H](CC(C)(C)C)NC(=O)[C@H](CC(=O)O)NC2=O` (stereo partly drawn) [I-1169, Ac-PL3-Asp-Npg-B5-Asp-Thr-Ala-Ala-Phe-Leu-PyrS2-2C1F-BztA-Gln-NH2], the IC50 in data set [1] (setting [2]) came out at 0.159 µM. Moreover, the “Solubility” value in “Solubility in PBS” was found to be 10 µM (≈ 19.3 µg/mL).
In the case of `CC(=O)N1CCC[C@]12CC=CCCCC1(CCCC=CCCCOC(=O)N3CC[C@@](C(=O)N[C@@H](Cc4ccsc4)C(=O)N[C@@H](Cc4csc5ccccc45)C(=O)N[C@@H](CCC(N)=O)C(N)=O)(C3)NC(=O)[C@H](CC(C)C)NC(=O)[C@H](Cc3ccccc3)NC(=O)[C@H](C)NC(=O)[C@H](C)NC(=O)[C@H]([C@@H](C)O)NC(=O)[C@H](CC(=O)O)NC1=O)NC(=O)[C@H](CC1CCCCC1)NC(=O)[C@H](CC(=O)O)NC2=O` (stereo partly drawn) [I-1174, Ac-PL3-Asp-Cha-B5-Asp-Thr-Ala-Ala-Phe-Leu-PyrS2-3Thi-BztA-Gln-NH2], in data set [1] (setting [2]), the IC50 was 0.043 µM. Further, in the data set “Solubility in PBS”, the “Solubility” value is 10 µM (≈ 19.3 µg/mL).
For `CC(=O)N1CCC[C@]12CC=CCCCC1(CCCC=CCCCOC(=O)N3CC[C@@](C(=O)N[C@@H](Cc4ccccc4Cl)C(=O)N[C@@H](Cc4csc5ccccc45)C(=O)N[C@@H](CCC(N)=O)C(N)=O)(C3)NC(=O)[C@H](CC(C)C)NC(=O)[C@H](Cc3ccccc3)NC(=O)[C@H](C)NC(=O)[C@H](C)NC(=O)[C@H]([C@@H](C)O)NC(=O)[C@H](CC(=O)O)NC1=O)NC(=O)[C@H](CC1CCCCC1)NC(=O)[C@H](CC(=O)O)NC2=O` (stereo partly drawn) [I-1176, Ac-PL3-Asp-Cha-B5-Asp-Thr-Ala-Ala-Phe-Leu-PyrS2-2C1F-BztA-Gln-NH2], in that order: 0.169 µM and 10 µM (≈ 19.6 µg/mL).
`CC(=O)N1CCC[C@]12CC=CCCCC1(CCCC=CCCCOC(=O)N3CC[C@@](C(=O)N[C@@H](Cc4ccsc4)C(=O)N[C@@H](Cc4csc5ccccc45)C(=O)N[C@@H](CCC(N)=O)C(N)=O)(C3)NC(=O)[C@H](CC(C)C)NC(=O)[C@H](Cc3ccccc3)NC(=O)C(C)(C)NC(=O)C(C)(C)NC(=O)[C@H](CC(=O)O)NC(=O)[C@H](CC(=O)O)NC1=O)NC(=O)[C@H](CC(C)(C)C)NC(=O)[C@H](CC(=O)O)NC2=O` (stereo partly drawn) [I-1179, Ac-PL3-Asp-Npg-B5-Asp-Asp-Aib-Aib-Phe-Leu-PyrS2-3Thi-BztA-Gln-NH2]: the IC50 in data set [1] (setting [3]) and in data set [1] (setting [2]) was 0.346 µM in each case. Also, in the data set “Solubility in PBS”, the “Solubility” value worked out at 44 µM (≈ 85.6 µg/mL).
Take `CC(=O)N1CCC[C@]12CC=CCCCC1(CCCC=CCCCOC(=O)N3CC[C@@](C(=O)N[C@@H](Cc4ccsc4)C(=O)N[C@@H](Cc4csc5ccccc45)C(=O)N[C@@H](CCC(N)=O)C(N)=O)(C3)NC(=O)[C@H](CC(C)C)NC(=O)[C@H](Cc3ccccc3)NC(=O)C(C)(C)NC(=O)C(C)(C)NC(=O)[C@H](CC(=O)O)NC(=O)[C@H](CC(=O)O)NC1=O)NC(=O)[C@H](CC(C)(C)C)NC(=O)[C@H](CC(=O)O)NC2=O` (stereo partly drawn) [I-1180, Ac-PL3-Asp-Npg-B5-Asp-Asp-Aib-Aib-Phe-Leu-PyrS2-3Thi-BztA-Gln-NH2]: the IC50 in data set [1] (setting [3]) and in data set [1] (setting [2]) was 0.087 µM each time. The “Solubility” value in “Solubility in PBS” was 31 µM (≈ 60.3 µg/mL).
With `CC(=O)N1CCC[C@H]1C(=O)N[C@@H](CC(=O)O)C(=O)N[C@@H](CC(C)(C)C)C(=O)N[C@]1(C)CCCC=CCCCOC(=O)N2CC[C@@](C(=O)N[C@@H](Cc3ccsc3)C(=O)N[C@@H](Cc3csc4ccccc34)C(=O)N[C@@H](CCC(N)=O)C(N)=O)(C2)NC(=O)[C@H](CC(N)=O)NC(=O)[C@H](Cc2ccccc2)NC(=O)[C@H](C)NC(=O)[C@H](C)NC(=O)[C@H](CC(=O)O)NC(=O)[C@H](CC(=O)O)NC1=O` [I-1182, Ac-Pro-Asp-Npg-R5-Asp-Asp-Ala-Ala-Phe-Asn-PyrS2-3Thi-BztA-Gln-NH2], the IC50 in data set [1] (setting [2]) was 0.144 µM. This compound gave a Solubility in “Solubility in PBS” (Solubility (uM)) of 48 µM (≈ 88.9 µg/mL).
Turning to `CC(=O)N1CCC[C@H]1C(=O)N[C@@H](CC(=O)O)C(=O)N[C@@H](CC(C)(C)C)C(=O)N[C@]1(C)CCCC=CCCCOC(=O)N2CC[C@@](C(=O)N[C@@H](Cc3ccccc3Cl)C(=O)N[C@@H](Cc3csc4ccccc34)C(=O)N[C@@H](CCC(N)=O)C(N)=O)(C2)NC(=O)[C@H](CC(N)=O)NC(=O)[C@H](Cc2ccccc2)NC(=O)[C@H](C)NC(=O)[C@H](C)NC(=O)[C@H](CC(=O)O)NC(=O)[C@H](CC(=O)O)NC1=O` [I-1183, Ac-Pro-Asp-Npg-R5-Asp-Asp-Ala-Ala-Phe-Asn-PyrS2-2C1F-BztA-Gln-NH2], the IC50 in data set [1] (setting [2]) was 0.409 µM. For the same compound, the “Solubility” value in “Solubility in PBS” is 50 µM (≈ 94 µg/mL).
Turning to `CC(=O)N1CCC[C@H]1C(=O)N[C@@H](CC(=O)O)C(=O)N[C@@H](CC1CCCCC1)C(=O)N[C@]1(C)CCCC=CCCCOC(=O)N2CC[C@@](C(=O)N[C@@H](Cc3ccccc3Cl)C(=O)N[C@@H](Cc3csc4ccccc34)C(=O)N[C@@H](CO)C(N)=O)(C2)NC(=O)[C@H]([C@@H](C)O)NC(=O)[C@H](Cc2ccccc2)NC(=O)[C@H](C)NC(=O)[C@H](C)NC(=O)[C@H](CC(=O)O)NC(=O)[C@H](CC(=O)O)NC1=O` [I-1184, Ac-Pro-Asp-Cha-R5-Asp-Asp-Ala-Ala-Phe-Thr-PyrS2-2C1F-BztA-Ser-NH2], in data set [1] (setting [2]), the IC50 stood at 0.176 µM. Further, the Solubility in the data set “Solubility in PBS” (Solubility (uM)) turned out to be 45 µM (≈ 83.4 µg/mL).

For the origin of these results see patent US20240116985A1, “STAPLED PEPTIDES AND METHODS THEREOF” (priority 2020, published 2024).
